Data reported in patent publication US6756362B2, “Methods and compositions based on inhibition of cell invasion and fibrosis by anionic polymers” (priority 1991, dated 2004).

Tests used:
[1] = system: dorsal root ganglia (DRG) explants; assay: Stripe assay, DRG explants; format: cell-based, chick; design: key: Bands that were completely inhibitory to cell adhesion, migration and/or invasion were evaluated as (−); those allowing limited cell adhesion, migration and/or invasion (+/−); those permissive to cell adhesion, migration and/or invasion as (+); conditions: for DS-PG Effect on Adhesion, Migration and Invasion: 2 days following plating
Procedure: Primary Explant Cultures. Dorsal root ganglia (DRGs) were obtained from E8-E9 chick embryos. The dissection was carried out in CMF-HBSS. The spinal cord was exposed and DRGs were removed and cleaned from surrounding connective tissue. DRGs were plated in DMEM/F12, 10% fetal calf serum containing 50 ng/ml nerve growth factor (NGF). The DRGs were seeded on laminin (LN, Gibco Laboratories) or poly-L-lysine (PLL, Sigma) coated dishes.
(§1) The stripe assay was performed essentially as described by Snow et al. (1990, Exp. Neural. 309:111-130). Tissue culture Petri dishes (Falcon, 60 mm) were precoated with 0.5 ml of a mixture of 5 cm^2 section nitrocellulose (Schleicher & Schuell, Type BA 85) dissolved in 6 ml methanol, and air dried in a laminar flow hood. Cellulose filter paper (Whatman #1) was cut into 12×0.35 mm strips with a McIlwain tissue chopper (The Mickle Laboratory Engineering Co., LTD). A strip of filter paper was soaked in 20 μl of a solution of DS-PG or KS/CS-PG and LN at given concentration, blotted onto the nitrocellulose-coated dish for 30 sec. and removed. The test solution was allowed to air dry. This process was repeated several times creating clearly defined, equally spaced parallel bands of uniform width on the plates. A thin layer of 0.1 or 1 mg/ml LN was then spread evenly across the bands with a bent glass Pasteur pipet, and covered with culture medium (FIG. 1).
(§2) Plates were seeded with cell suspensions of 2.0×10^5 cells/ml or 4-10 DRG explants. The cultures were assessed for degree of adhesion, migration and/or invasion of the DS-PG or KS/CS-PG bands over a period of up to 7 days using a Leitz Fluovert microscope.
(§3) Bands that were completely inhibitory to cell adhesion, migration and/or invasion were evaluated as (−), those allowing limited cell adhesion, migration and/or invasion (+/−), and those permissive to cell adhesion, migration and/or invasion as (+). cell adhesion was defined as the initial interaction between the cell surface and the substratum which results in cell attachment and spreading. Cell migration was operationally defined as cell movement within the same substratum, and cell invasion was operationally defined as cell movement from one type of substratum to another type of substratum.

Murine 3T3 fibroblast = assay: Stripe assay, 3T3; format: cell-based, mouse; design: key: Bands that were completely inhibitory to cell adhesion, migration and/or invasion were evaluated as (−); those allowing limited cell adhesion, migration and/or invasion (+/−); those permissive to cell adhesion, migration and/or invasion as (+); conditions: for DS-PG Effect on Adhesion, Migration and Invasion / Effect of KS/CS-PG on Cell Migration: 3T3; for DS-PG Effect on Adhesion, Migration and Invasion: 2 days following plating
Procedure: Cell lines. Murine 3T3 fibroblast (NIH), rat C6 glioma (Paganetti et al., 1988, J. Cell Biol. 107:2281) and MCG-28 young immortalized mouse astrocyte (a murine neonatal astrocyte line immortalized with SV-40) were grown in medium composed of Dulbecco's modified Eagle medium (DMEM), 10% fetal calf serum (Gibco Laboratories), and penicillin G/streptomycin (100 units/ml, 100 μg/ml respectively, Gibco Laboratories). For the stripe assay, confluent plates were disaggregated with 0.05% trypsin, 0.53 mM EDTA (Gibco Laboratories) and seeded at 200,000 cells/ml (3 ml/plate). For the cell adhesion assays, confluent cultures were disaggregated with 0.03% EDTA and plated in a 96-well microtiter plate at 20,000-100,000 cells per well. PC12 cells, a pheochromocytoma cell line (Green L. A. & Tischler A. S., 1976, Proc. Natl. Acad. Sci. U.S.A. 73:2424), were grown in medium containing Roswell Park Memorial Institute (RPMI) medium 1640 (Gibco Laboratories), 10% horse serum, 5% fetal calf serum (FCS), and penicillin G/streptomycin (100 units/ml, 100 μg/ml respectively, Gibco Laboratories). The cells were disaggregated with 0.03% EDTA and plated in a 96-well microtiter plate at 3,000 cells per well.
as §1, §2, §3

[2] = 0.1 mg/ml DS-PG + 20 μg/ml LN stripes
[3] = 0.2 mg/ml DS-PG + 20 μg/ml LN stripes
[4] = 0.4 mg/ml DS-PG + 20 μg/ml LN stripes
[5] = 0.8 mg/ml DS-PG + 20 μg/ml LN stripes
[6] = 0.25 mg/ml KS/CS-PG + LN stripes
[7] = 0.5 mg/ml KS/CS-PG + LN stripes
[8] = 1.0 mg/ml KS/CS-PG + LN stripes
[9] = 2.7 mg/ml KS/CS-PG + LN stripes

With Dermatan sulfate proteoglycan [DS-PG] the “DS-PG Effect on Adhesion, Migration and Invasion” value (“DS-PG Effect on Adhesion” below) [1, 2] was “+”, the “DS-PG Effect on Adhesion” value [1, 3] was “+/−” and the “DS-PG Effect on Adhesion” value [1, 4] was “−”. The “DS-PG Effect on Adhesion” value [1, 5] was “−”, the “Time Dependent Effect of DS-PG on 3T3 Cell Migration” value (shortened to “Time Dependent Effect of DS-PG”) (Murine 3T3 fibroblast; 0.1 mg/ml (1.25 μM), 1d) was “+” and the “Time Dependent Effect of DS-PG” value (Murine 3T3 fibroblast; 0.1 mg/ml (1.25 μM), 2d) was “+”. For the same substance, the “Time Dependent Effect of DS-PG” value (Murine 3T3 fibroblast; 0.1 mg/ml (1.25 μM), 3d) was “+”, the “Time Dependent Effect of DS-PG” value (Murine 3T3 fibroblast; 0.1 mg/ml (1.25 μM), 4d) was “+” and the “Time Dependent Effect of DS-PG” value (Murine 3T3 fibroblast; 0.1 mg/ml (1.25 μM), 7d) was “+”. The “DS-PG Effect on Adhesion” value (Murine 3T3 fibroblast; [2]) was “+”, the “Time Dependent Effect of DS-PG” value (Murine 3T3 fibroblast; 0.2 mg/ml (2.5 μM), 1d) was “+/−” and the “Time Dependent Effect of DS-PG” value (Murine 3T3 fibroblast; 0.2 mg/ml (2.5 μM), 2d) was “+/−”. The “Time Dependent Effect of DS-PG” value (Murine 3T3 fibroblast; 0.2 mg/ml (2.5 μM), 3d) was “+/−”, the “Time Dependent Effect of DS-PG” value (Murine 3T3 fibroblast; 0.2 mg/ml (2.5 μM), 4d) was “+/−” and the “Time Dependent Effect of DS-PG” value (Murine 3T3 fibroblast; 0.2 mg/ml (2.5 μM), 7d) was “+”. The “DS-PG Effect on Adhesion” value (Murine 3T3 fibroblast; [3]) was “+/−”, the “Time Dependent Effect of DS-PG” value (Murine 3T3 fibroblast; 0.4 mg/ml (5 μM), 1d) was “−” and the “Time Dependent Effect of DS-PG” value (Murine 3T3 fibroblast; 0.4 mg/ml (5 μM), 2d) was “−”. For the same substance, the “Time Dependent Effect of DS-PG” value (Murine 3T3 fibroblast; 0.4 mg/ml (5 μM), 3d) was “−”, the “Time Dependent Effect of DS-PG” value (Murine 3T3 fibroblast; 0.4 mg/ml (5 μM), 4d) was “−” and the “Time Dependent Effect of DS-PG” value (Murine 3T3 fibroblast; 0.4 mg/ml (5 μM), 7d) was “+/−”. The “DS-PG Effect on Adhesion” value (Murine 3T3 fibroblast; [4]) was “−”, the “Time Dependent Effect of DS-PG” value (Murine 3T3 fibroblast; 0.8 mg/ml (10 μM), 1d) was “−” and the “Time Dependent Effect of DS-PG” value (Murine 3T3 fibroblast; 0.8 mg/ml (10 μM), 2d) was “−”. The “Time Dependent Effect of DS-PG” value (Murine 3T3 fibroblast; 0.8 mg/ml (10 μM), 3d) was “−”, the “Time Dependent Effect of DS-PG” value (Murine 3T3 fibroblast; 0.8 mg/ml (10 μM), 4d) was “−” and the “Time Dependent Effect of DS-PG” value (Murine 3T3 fibroblast; 0.8 mg/ml (10 μM), 7d) was “+/−”. For the same substance, the “DS-PG Effect on Adhesion” value (Murine 3T3 fibroblast; [5]) was “−”.
With “keratan sulfate/chrondroitin sulfate-proteoglycans [KS/CS-PG]” the “Effect of KS/CS-PG on Cell Migration” value [1, 6] was “+”, the “Effect of KS/CS-PG on Cell Migration” value [1, 7] was “−” and the “Effect of KS/CS-PG on Cell Migration” value [1, 8] was “−”. For the same substance, the “Effect of KS/CS-PG on Cell Migration” value [1, 9] was “−”, the “Effect of KS/CS-PG on Cell Migration” value (Murine 3T3 fibroblast; [6]) was “+” and the “Effect of KS/CS-PG on Cell Migration” value (Murine 3T3 fibroblast; [7]) was “+/−”. The “Effect of KS/CS-PG on Cell Migration” value (Murine 3T3 fibroblast; [8]) was “+/−” and the “Effect of KS/CS-PG on Cell Migration” value (Murine 3T3 fibroblast; [9]) was “−”.
